In patent publication US8192962B2, “Processes for detecting toxic substances” (Daikin Industries, Ltd., priority 2001, dated 2012):

Tested on: Transport facilitation protein genes
Test: DNA chip mRNA expression in yeast, transport facilitation protein genes (Table 5)
Format: cell-based, Saccharomyces cerevisiae S288C
Summary of the method: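 First, S288C yeast grown in YPD at 25° C. are dosed in log phase with one toxicant (growth-inhibiting, not lethal) for 2 h. Next, total RNA is extracted and poly(A) mRNA isolated and reverse-transcribed with Cy3/Cy5-dUTP. Finally, whole-genome chip fluorescence is read relative to unexposed cells.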

For `Cl[C@H]1[C@H](Cl)[C@@H](Cl)[C@@H](Cl)[C@H](Cl)[C@H]1Cl` [(7), γ-hexachlorocyclohexane], the “The level of expressed mRNA in the presence of chemical substance/The level of expressed mRNA in the absence of chemical substance” value (yeast gene YGR260W) was 0.9, the “The level of expressed mRNA in the presence of chemical substance/The level of expressed mRNA in the absence of chemical substance” value (yeast gene YGR281W) was 0.9 and the “The level of expressed mRNA in the presence of chemical substance/The level of expressed mRNA in the absence of chemical substance” value (yeast gene YHL035C) was 1.7. For the same compound, the “The level of expressed mRNA in the presence of chemical substance/The level of expressed mRNA in the absence of chemical substance” value (yeast gene YHL040C) was 4.0, the “The level of expressed mRNA in the presence of chemical substance/The level of expressed mRNA in the absence of chemical substance” value (yeast gene YHL047C) was 16.8 and the “The level of expressed mRNA in the presence of chemical substance/The level of expressed mRNA in the absence of chemical substance” value (yeast gene YHR026W) was 0.9. The “The level of expressed mRNA in the presence of chemical substance/The level of expressed mRNA in the absence of chemical substance” value (yeast gene YHR092C) was 0.5, the “The level of expressed mRNA in the presence of chemical substance/The level of expressed mRNA in the absence of chemical substance” value (yeast gene YHR094C) was 0.8 and the “The level of expressed mRNA in the presence of chemical substance/The level of expressed mRNA in the absence of chemical substance” value (yeast gene YHR175W) was 1.6. The “The level of expressed mRNA in the presence of chemical substance/The level of expressed mRNA in the absence of chemical substance” value (yeast gene YIL006W) was 0.8, the “The level of expressed mRNA in the presence of chemical substance/The level of expressed mRNA in the absence of chemical substance” value (yeast gene YIL022W) was 0.7 and the “The level of expressed mRNA in the presence of chemical substance/The level of expressed mRNA in the absence of chemical substance” value (yeast gene YIL056W) was 0.6. The “The level of expressed mRNA in the presence of chemical substance/The level of expressed mRNA in the absence of chemical substance” value (yeast gene YIL088C) was 1.7, the “The level of expressed mRNA in the presence of chemical substance/The level of expressed mRNA in the absence of chemical substance” value (yeast gene YJL034W) was 1.3 and the “The level of expressed mRNA in the presence of chemical substance/The level of expressed mRNA in the absence of chemical substance” value (yeast gene YJL212C) was 0.7. The “The level of expressed mRNA in the presence of chemical substance/The level of expressed mRNA in the absence of chemical substance” value (yeast gene YJL219W) was 0.9, the “The level of expressed mRNA in the presence of chemical substance/The level of expressed mRNA in the absence of chemical substance” value (yeast gene YJR077C) was 0.7 and the “The level of expressed mRNA in the presence of chemical substance/The level of expressed mRNA in the absence of chemical substance” value (yeast gene YJR106W) was 1.0. For the same compound, the “The level of expressed mRNA in the presence of chemical substance/The level of expressed mRNA in the absence of chemical substance” value (yeast gene YJR121W) was 1.0, the “The level of expressed mRNA in the presence of chemical substance/The level of expressed mRNA in the absence of chemical substance” value (yeast gene YKL016C) was 1.5 and the “The level of expressed mRNA in the presence of chemical substance/The level of expressed mRNA in the absence of chemical substance” value (yeast gene YKL146W) was 0.9. For the same compound, the “The level of expressed mRNA in the presence of chemical substance/The level of expressed mRNA in the absence of chemical substance” value (yeast gene YKR039W) was 1.0, the “The level of expressed mRNA in the presence of chemical substance/The level of expressed mRNA in the absence of chemical substance” value (yeast gene YKR067W) was 2.0 and the “The level of expressed mRNA in the presence of chemical substance/The level of expressed mRNA in the absence of chemical substance” value (yeast gene YLL028W) was 1.0. The “The level of expressed mRNA in the presence of chemical substance/The level of expressed mRNA in the absence of chemical substance” value (yeast gene YLR081W) was 0.7, the “The level of expressed mRNA in the presence of chemical substance/The level of expressed mRNA in the absence of chemical substance” value (yeast gene YLR295C) was 1.1 and the “The level of expressed mRNA in the presence of chemical substance/The level of expressed mRNA in the absence of chemical substance” value (yeast gene YLR348C) was 0.9. For the same compound, the “The level of expressed mRNA in the presence of chemical substance/The level of expressed mRNA in the absence of chemical substance” value (yeast gene YLR378C) was 0.7, the “The level of expressed mRNA in the presence of chemical substance/The level of expressed mRNA in the absence of chemical substance” value (yeast gene YMR011W) was 0.8 and the “The level of expressed mRNA in the presence of chemical substance/The level of expressed mRNA in the absence of chemical substance” value (yeast gene YMR162C) was 0.8. For the same compound, the “The level of expressed mRNA in the presence of chemical substance/The level of expressed mRNA in the absence of chemical substance” value (yeast gene YMR203W) was 0.8, the “The level of expressed mRNA in the presence of chemical substance/The level of expressed mRNA in the absence of chemical substance” value (yeast gene YNL055C) was 1.2 and the “The level of expressed mRNA in the presence of chemical substance/The level of expressed mRNA in the absence of chemical substance” value (yeast gene YNL259C) was 3.8. For the same compound, the “The level of expressed mRNA in the presence of chemical substance/The level of expressed mRNA in the absence of chemical substance” value (yeast gene YNR072W) was 1.5, the “The level of expressed mRNA in the presence of chemical substance/The level of expressed mRNA in the absence of chemical substance” value (yeast gene YOL119C) was 2.2 and the “The level of expressed mRNA in the presence of chemical substance/The level of expressed mRNA in the absence of chemical substance” value (yeast gene YOL156W) was 1.0. The “The level of expressed mRNA in the presence of chemical substance/The level of expressed mRNA in the absence of chemical substance” value (yeast gene YOL163W) was 0.9, the “The level of expressed mRNA in the presence of chemical substance/The level of expressed mRNA in the absence of chemical substance” value (yeast gene YOR035C) was 1.3 and the “The level of expressed mRNA in the presence of chemical substance/The level of expressed mRNA in the absence of chemical substance” value (yeast gene YOR130C) was 1.3. For the same compound, the “The level of expressed mRNA in the presence of chemical substance/The level of expressed mRNA in the absence of chemical substance” value (yeast gene YOR153W) was 2.6, the “The level of expressed mRNA in the presence of chemical substance/The level of expressed mRNA in the absence of chemical substance” value (yeast gene YOR270C) was 1.0 and the “The level of expressed mRNA in the presence of chemical substance/The level of expressed mRNA in the absence of chemical substance” value (yeast gene YOR273C) was 0.4. The “The level of expressed mRNA in the presence of chemical substance/The level of expressed mRNA in the absence of chemical substance” value (yeast gene YOR316C) was 1.4, the “The level of expressed mRNA in the presence of chemical substance/The level of expressed mRNA in the absence of chemical substance” value (yeast gene YOR332W) was 0.9 and the “The level of expressed mRNA in the presence of chemical substance/The level of expressed mRNA in the absence of chemical substance” value (yeast gene YOR348C) was 0.8. For the same compound, the “The level of expressed mRNA in the presence of chemical substance/The level of expressed mRNA in the absence of chemical substance” value (yeast gene YPL036W) was 0.3, the “The level of expressed mRNA in the presence of chemical substance/The level of expressed mRNA in the absence of chemical substance” value (yeast gene YPL134C) was 1.2 and the “The level of expressed mRNA in the presence of chemical substance/The level of expressed mRNA in the absence of chemical substance” value (yeast gene YPL271W) was 1.2. For the same compound, the “The level of expressed mRNA in the presence of chemical substance/The level of expressed mRNA in the absence of chemical substance” value (yeast gene YPR192W) was 0.9 and the “The level of expressed mRNA in the presence of chemical substance/The level of expressed mRNA in the absence of chemical substance” value (yeast gene YPR194C) was 0.7.
